According to PubChem BioAssay AID310 (DTP/NCI, 2004):
Values joined by “and” are separate entries in the source; they are usually repeats but may differ in a detail not shown here. Identical values can stand only once. Results filed as inconclusive are left out.

System: C3AKF1 mice, osteogenic sarcoma HE10734 s.c., tumor weight T/C
Experiment: NCI In Vivo Anticancer Drug Screen. Data for tumor model Osteogenic Sarcoma HE 10734 (subcutaneous) in C3AKF1 (CHKRF1) mice
Details: endpoint: mean tumor weight, schedule: Q01DX010 (ip), higher = larger tumour
Method: The antitumor activity of compounds was measured in mice bearing transplantable tumors. Survival or tumor size were measured and the results are expressed as the measurement made in the treated group (T) divided by the measurement made in the vehicle treated control group (C). The tumor model used in this assay is Osteogenic Sarcoma HE 10734 (subcutaneous) in C3AKF1 (CHKRF1) mice

[1] = dose: 8.0 mg/kg/injection, vehicle: carboxymethylcellulose (CMC)

With `CCC[CH2][Sn]([CH2]CCC)([CH2]CCC)[O]C(=O)CC[S][Sn]([CH2]CCC)([CH2]CCC)[CH2]CCC` the T/C (dose: 0.75 mg/kg/injection, vehicle: saline) was 124 % of control, the T/C (dose: 1.5 mg/kg/injection, vehicle: saline) was 90 % of control and the T/C (dose: 6.0 mg/kg/injection, vehicle: saline) was 72 % of control. The T/C (dose: 12.0 mg/kg/injection, vehicle: saline) was 89 % of control and the T/C (dose: 24.0 mg/kg/injection, vehicle: saline) was 30 % of control.
With `CCCCn1cnc2c(SC)nc(N)nc21` the T/C (dose: 30.0 mg/kg/injection, vehicle: carboxymethylcellulose (CMC)) was 69 % of control and the T/C (dose: 115.0 mg/kg/injection, vehicle: carboxymethylcellulose (CMC)) was 71 % of control.
In the case of `CSc1ncc(Br)c(Sc2nc(N)nc3nc[nH]c23)n1`, the T/C (dose: 1.5 mg/kg/injection, vehicle: carboxymethylcellulose (CMC)) was 103 % of control, the T/C (dose: 3.0 mg/kg/injection, vehicle: carboxymethylcellulose (CMC)) was 87 % of control and the T/C (dose: 6.0 mg/kg/injection, vehicle: carboxymethylcellulose (CMC)) was 55 % of control. The T/C (dose: 12.0 mg/kg/injection, vehicle: carboxymethylcellulose (CMC)) was 77 % of control.
In the case of `CCN(CC)CCN1C(=O)c2cccc3cccc(c23)C1=O`, the T/C (dose: 25.0 mg/kg/injection, vehicle: carboxymethylcellulose (CMC)) was 86 % of control, the T/C (dose: 50.0 mg/kg/injection, vehicle: carboxymethylcellulose (CMC)) was 78 % of control and the T/C (dose: 100.0 mg/kg/injection, vehicle: carboxymethylcellulose (CMC)) was 85 % of control.
For `Cc1ccc(N=NN(C)C)cc1`, the T/C (dose: 25.0 mg/kg/injection, vehicle: saline) was 83 % of control, the T/C (dose: 50.0 mg/kg/injection, vehicle: saline) was 46 % of control and the T/C (dose: 100.0 mg/kg/injection, vehicle: saline) was 46 % of control.
For `NC(CCSCc1ccc(N(CCCl)CCCl)cc1)C(=O)O` (stereo unspecified), the T/C (dose: 4.5 mg/kg/injection, vehicle: saline) was 74 % of control, the T/C (dose: 9.0 mg/kg/injection, vehicle: saline) was 105 % of control and 118 % of control and the T/C (dose: 54.0 mg/kg/injection, vehicle: saline) was 39 % of control.
In the case of `O=C(c1ccc(C(=O)N2CC2)cc1)N1CC1`, the T/C (dose: 3.13 mg/kg/injection, vehicle: carboxymethylcellulose (CMC)) was 55 % of control, the T/C (dose: 6.25 mg/kg/injection, vehicle: carboxymethylcellulose (CMC)) was 106 % of control and the T/C (dose: 12.5 mg/kg/injection, vehicle: carboxymethylcellulose (CMC)) was 118 % of control.
In the case of `CC1(C)N=C(N)N=C(N)N1c1cccc(Br)c1`, the T/C (dose: 4.4 mg/kg/injection, vehicle: carboxymethylcellulose (CMC)) was 89 % of control, the T/C (dose: 6.6 mg/kg/injection, vehicle: carboxymethylcellulose (CMC)) was 102 % of control and the T/C (dose: 10.0 mg/kg/injection, vehicle: carboxymethylcellulose (CMC)) was 50 % of control and 51 % of control.
In the case of `CCOc1ccc(Nc2ncnc3nc[nH]c23)cc1CN(CCCl)CCCl`, the T/C (dose: 1.0 mg/kg/injection, vehicle: carboxymethylcellulose (CMC)) was 86 % of control, the T/C (dose: 4.0 mg/kg/injection, vehicle: carboxymethylcellulose (CMC)) was 94 % of control and the T/C [1] was 83 % of control and 95 % of control.
In the case of `Nc1nc(N)c(N=O)c(Nc2ccc(Br)cc2)n1`, the T/C (dose: 22.0 mg/kg/injection, vehicle: carboxymethylcellulose (CMC)) was 94 % of control, the T/C (dose: 44.0 mg/kg/injection, vehicle: carboxymethylcellulose (CMC)) was 66 % of control and the T/C (dose: 88.0 mg/kg/injection, vehicle: carboxymethylcellulose (CMC)) was 62 % of control. The T/C (dose: 175.0 mg/kg/injection, vehicle: carboxymethylcellulose (CMC)) was 58 % of control and 61 % of control, the T/C (dose: 265.0 mg/kg/injection, vehicle: carboxymethylcellulose (CMC)) was 33 % of control and the T/C (dose: 395.0 mg/kg/injection, vehicle: carboxymethylcellulose (CMC)) was 34 % of control.
In the case of `CS(=O)(=O)OCCCCCCCCCOS(C)(=O)=O`, the T/C [1] was 81 % of control, the T/C (dose: 16.0 mg/kg/injection, vehicle: carboxymethylcellulose (CMC)) was 81 % of control and the T/C (dose: 28.0 mg/kg/injection, vehicle: carboxymethylcellulose (CMC)) was 57 % of control. For the same compound, the T/C (dose: 55.0 mg/kg/injection, vehicle: carboxymethylcellulose (CMC)) was 37 % of control.
`NC(=O)c1ccc(NC(=O)CCC(=O)Nc2ccc(C(N)=O)cn2)nc1` was tested, and the T/C (dose: 0.66 mg/kg/injection, vehicle: carboxymethylcellulose (CMC)) was 118 % of control and 120 % of control and the T/C (dose: 2.5 mg/kg/injection, vehicle: carboxymethylcellulose (CMC)) was 67 % of control.
